Earlier results as cited in paper PMC9503778, “Targeted Isolation of Antibiotic Brominated Alkaloids from the Marine Sponge Pseudoceratina durissima Using Virtual Screening and Molecular Networking” (Marine Drugs, 2022).

Columns and labels:
[1] = tested on: Mediterranean fish species Blennius sphinx; set-up: method as in PMID 15018063; conditions: cited from earlier work
[2] = tested on: S. aureus; set-up: method as in PMID 8297426; conditions: tested at 100 µg/mL; cited from earlier work

Compound | feeding deterrent activity, Blennius sphinx [1] | inhibition zones in disc diffusion assays against S. aureus [2]
COC1=C(Br)[C@H](O)[C@@]2(C=C1Br)CC(C(=O)NCCCCNC(=O)C1=NO[C@]3(C=C(Br)C(OC)=C(Br)[C@@H]3O)C1)=NO2 [Compound 2, aerothionin] | significant feeding deterrent activity | 
COC1=C(Br)[C@H](O)[C@](O)(CC#N)C=C1Br [Compound 1, (+)-aeroplysinin-1] |  | large inhibition zones
